Columns and labels:
[1] = rat, in vivo, iv, 3 mg/kg
Method: (§1) The ED-50 was 195 pg/tube, and the limit of detection was 2 pg/ml. The intra-assay CV was <10% over the range 0.5 to 25 ng/ml. Any samples reading off the standard curve were further diluted before being re-assayed.

in vivo [2] = conditions: rat, iv, 3 mg/kg
Method: as §1

in vivo [3] = conditions: rat, iv, 30 mg/kg
Method: Blood samples (≈220 ul) were collected into heparinized tubes containing 20 μl Sigma protease inhibitor cocktail for mammalian tissues diluted at a 1:9 ratio in 0.1 M PBS (pH=7). The samples were collected at 20, 10 and 0 min before and 1, 2, 4, 8, 16, 32 and 64 min after injection. […] The samples were centrifuged at 3000× g for 15 min at 4° C. and the plasma removed and stored at −80° C. until extraction and assay.

time for plasma GPE to decline back to baseline values [1]: ≤ 8 min
level at 8 min (in vivo [2]): 9.8 ± 1.33 ng/mL
Pro-Glu in plasma by HPLC (in vivo [3]): could not be identified
level at 1 min (in vivo [3]): 33000 ng/mL
Structure (SMILES): NCC(=O)N1CCC[C@H]1C(=O)N[C@@H](CCC(=O)O)C(=O)O [GPE, glycine-proline-glutamate]

— patent publication US20070224165A1, “Neuroprotective Effects of Gly-Pro-Glu Following Intravenous Infusion” (Neuren Pharmaceuticals Limited, priority 2003, published 2007)
